According to the supplement of paper PMC11451515:

System: SEM cells
Test: cell viability relative to DMSO control; higher = less cytotoxic
Conditions: 48 h
Method in brief: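 NOMO1 or SEM cells were plated at 500 cells/well and P12-Ichikawa cells at 1000 cells/well in 1536-well plates (5 μl), after each leukemia line had been adapted for at least four passages in each medium. Pin dosing delivered library compounds in DMSO at 11 threefold concentrations, 47 μM to 0.79 nM. CellTiter-Glo One luminescence was read after 48 h at 37°C. Viability is reported as a per-plate percentage of DMSO wells, with cell-free wells as background.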

[1] = HPLM + 10% dialyzed FBS, 0.000781 µM
[2] = HPLM + 10% dialyzed FBS, 0.00234 µM
[3] = HPLM + 10% dialyzed FBS, 0.00702 µM
[4] = HPLM + 10% dialyzed FBS, 0.0211 µM
[5] = HPLM + 10% dialyzed FBS, 0.0632 µM
[6] = HPLM + 10% dialyzed FBS, 0.19 µM
[7] = HPLM + 10% dialyzed FBS, 0.569 µM
[8] = HPLM + 10% dialyzed FBS, 1.71 µM
[9] = HPLM + 10% dialyzed FBS, 5.12 µM
[10] = HPLM + 10% dialyzed FBS, 15.4 µM
[11] = HPLM + 10% dialyzed FBS, 46.1 µM
[12] = RPMI 5 mM glucose + 10% FBS, 0.000781 µM
[13] = RPMI 5 mM glucose + 10% FBS, 0.00234 µM
[14] = RPMI 5 mM glucose + 10% FBS, 0.00702 µM
[15] = RPMI 5 mM glucose + 10% FBS, 0.0211 µM
[16] = RPMI 5 mM glucose + 10% FBS, 0.0632 µM
[17] = RPMI 5 mM glucose + 10% FBS, 0.19 µM
[18] = RPMI 5 mM glucose + 10% FBS, 0.569 µM
[19] = RPMI 5 mM glucose + 10% FBS, 1.71 µM
[20] = RPMI 5 mM glucose + 10% FBS, 5.12 µM
[21] = RPMI 5 mM glucose + 10% FBS, 15.4 µM
[22] = RPMI 5 mM glucose + 10% FBS, 46.1 µM
[23] = RPMI 5 mM glucose + 10% dialyzed FBS, 0.000781 µM
[24] = RPMI 5 mM glucose + 10% dialyzed FBS, 0.00234 µM
[25] = RPMI 5 mM glucose + 10% dialyzed FBS, 0.00702 µM
[26] = RPMI 5 mM glucose + 10% dialyzed FBS, 0.0211 µM
[27] = RPMI 5 mM glucose + 10% dialyzed FBS, 0.0632 µM
[28] = RPMI 5 mM glucose + 10% dialyzed FBS, 0.19 µM
[29] = RPMI 5 mM glucose + 10% dialyzed FBS, 0.569 µM
[30] = RPMI 5 mM glucose + 10% dialyzed FBS, 1.71 µM
[31] = RPMI 5 mM glucose + 10% dialyzed FBS, 5.12 µM
[32] = RPMI 5 mM glucose + 10% dialyzed FBS, 15.4 µM
[33] = RPMI 5 mM glucose + 10% dialyzed FBS, 46.1 µM

| Compound | cell viability [1] [%] | cell viability [2] [%] | cell viability [3] [%] | cell viability [4] [%] | cell viability [5] [%] | cell viability [6] [%] | cell viability [7] [%] | cell viability [8] [%] | cell viability [9] [%] | cell viability [10] [%] | cell viability [11] [%] | cell viability [12] [%] | cell viability [13] [%] | cell viability [14] [%] | cell viability [15] [%] | cell viability [16] [%] | cell viability [17] [%] | cell viability [18] [%] | cell viability [19] [%] | cell viability [20] [%] | cell viability [21] [%] | cell viability [22] [%] | cell viability [23] [%] | cell viability [24] [%] | cell viability [25] [%] | cell viability [26] [%] | cell viability [27] [%] | cell viability [28] [%] | cell viability [29] [%] | cell viability [30] [%] | cell viability [31] [%] | cell viability [32] [%] | cell viability [33] [%] |
| --- | --- | --- | --- | --- | --- | --- | --- | --- | --- | --- | --- | --- | --- | --- | --- | --- | --- | --- | --- | --- | --- | --- | --- | --- | --- | --- | --- | --- | --- | --- | --- | --- | --- |
| Cc1c(OCC(F)(F)F)ccnc1C[S+]([O-])c1nc2ccccc2[nH]1 (stereo unspecified) | 96.5 | 93.5 | 96.4 | 97.1 | 99 | 99.9 | 106 | 117 | 106 | 104 | 125 | 116 | 110 | 99.7 | 107 | 105 | 126 | 111 | 124 | 115 | 104 | 101 | 97.7 | 109 | 112 | 111 | 109 | 122 | 112 | 121 | 131 | 121 | 97.7 |
| CN(C(=O)c1ccc(F)cc1C(F)(F)F)C1CCN(c2nnc(-c3ccnn3C)c3ccccc23)CC1 | 50.4 | 67.5 | 60.6 | 62.4 | 79.4 | 85.1 | 69.4 | 78.6 | 79 | 80.6 | 49.2 | 69.2 | 74.8 | 71 | 85.5 | 83.3 | 77.6 | 91 | 86.2 | 74.1 | 86.8 | 59.8 | 56.3 | 61.4 | 61.9 | 70.8 | 66.7 | 80.4 | 65 | 86.1 | 79.2 | 83.3 | 41 |
| O=C1[O][Pt]2([NH]C3CCCCC3[NH]2)[O]C1=O (stereo unspecified) | 95.9 | 110 | 102 | 107 | 105 | 108 | 101 | 91.5 | 27 | 3.68 | 4.13 | 74 | 77.5 | 69 | 66.6 | 83.8 | 84 | 81.7 | 60.3 | 15 | 2.66 | 2.68 | 84.7 | 97.5 | 104 | 114 | 108 | 102 | 118 | 91.3 | 42.6 | 3.5 | 3.34 |
| CC(Oc1ccc(O)cc1)(P(=O)(O)O)P(=O)(O)O | 108 | 105 | 98.2 | 108 | 109 | 104 | 86.1 | 101 | 83.3 | 65.5 | 28.5 | 107 | 110 | 103 | 116 | 109 | 96.2 | 92.3 | 105 | 83.1 | 48.4 | 25.1 | 98.8 | 85.7 | 103 | 97.9 | 113 | 110 | 90.1 | 96.3 | 74.9 | 55.1 | 28.6 |
| CCOc1ccccc1OCCNC(C)Cc1ccc(OC)c([S+](N)(=O)[O-])c1 (stereo unspecified) | 87.1 | 82.9 | 101 | 103 | 116 | 101 | 125 | 103 | 119 | 90.9 | 85.8 | 93.4 | 85.9 | 101 | 118 | 104 | 106 | 115 | 114 | 107 | 97.6 | 105 | 112 | 88.9 | 115 | 126 | 115 | 109 | 130 | 129 | 108 | 127 | 114 |
| C[C@H]1[C@@H](CC(C[C@H]2O[C@@H]3O[C@]4(C)CC[C@H]5[C@H](C)CC[C@@H]([C@H]2C)[C@@]35OO4)C[S+](=O)([O-])c2ccc(COC(=O)N(C)C)cc2)O[C@@H]2O[C@]3(C)CC[C@H]4[C@H](C)CC[C@@H]1[C@@]24OO3 | 96.1 | 91.3 | 97.2 | 99.8 | 102 | 89.3 | 72.9 | 5.9 | 7.11 | 6.96 | 4.59 | 101 | 103 | 91.3 | 115 | 106 | 108 | 23.9 | 6.39 | 7.58 | 7.01 | 5.47 | 109 | 112 | 94.1 | 105 | 107 | 104 | 27.5 | 6.28 | 6.52 | 6.47 | 4.61 |
| CN(C)c1ccc(C(=O)NCCCCCCC(=O)NO)cc1 | 97.1 | 94.4 | 91.8 | 88.1 | 97.7 | 96.2 | 93.9 | 34 | 3.1 | 1.85 | 2.9 | 91.8 | 100 | 94.6 | 92 | 112 | 94.8 | 76.2 | 37.3 | 3.1 | 1.95 | 3.03 | 93.2 | 111 | 105 | 96.4 | 95 | 90.7 | 83.5 | 31.4 | 2.63 | 1.52 | 3.31 |
| COc1ccc2cc(-c3[nH]c(-c4ccc([S+](C)[O-])cc4)nc3-c3ccncc3)ccc2c1 (stereo unspecified) | 92.4 | 104 | 105 | 109 | 109 | 114 | 121 | 107 | 126 | 127 | 107 | 76.8 | 105 | 96.3 | 85.9 | 95 | 101 | 101 | 106 | 110 | 111 | 71.9 | 88.6 | 109 | 102 | 105 | 101 | 116 | 127 | 109 | 111 | 116 | 88.9 |
| c1cc(OCCN2CCCCC2)cc(-c2n[nH]c3ccc(-c4nc[nH]n4)cc23)c1 | 109 | 102 | 113 | 107 | 120 | 105 | 82.8 | 57.6 | 99.9 | 87.8 | 60.4 | 95.9 | 99.9 | 104 | 97.8 | 107 | 110 | 90.6 | 54.4 | 97.3 | 92.1 | 47.6 | 83.9 | 105 | 99.3 | 119 | 126 | 107 | 103 | 48.8 | 89.4 | 76.7 | 53.7 |
| Cn1cc(-c2ccncc2)c(-c2ccc(OCc3ccc4ccccc4n3)cc2)n1 | 124 | 127 | 95 | 134 | 132 | 123 | 116 | 124 | 125 | 110 | 110 | 123 | 126 | 102 | 118 | 118 | 125 | 122 | 124 | 95.3 | 81.1 | 82.4 | 94.6 | 108 | 89.7 | 112 | 98 | 102 | 112 | 110 | 103 | 96.8 | 64.3 |
| NC\1=N\C(=O)N(\C=N1)[C@H]2C[C@H](O)[C@@H](CO)O2 | 57.8 | 100 | 94.7 | 97.2 | 118 | 101 | 89.8 | 71.3 | 41 | 29.5 | 16.5 | 54.1 | 91.3 | 86 | 92.9 | 107 | 92 | 81.8 | 63.8 | 32.2 | 22.2 | 12.1 | 55.1 | 99.4 | 81 | 84.3 | 91.4 | 93.3 | 67.5 | 49.1 | 32 | 27.5 | 21.2 |
| CCCCCCCCCCCCCCCC(=O)OC[C@@H](NC(=O)C(Cl)Cl)[C@H](O)c1ccc([N+](=O)[O-])cc1 | 90.3 | 113 | 114 | 116 | 121 | 121 | 118 | 123 | 131 | 116 | 119 | 120 | 117 | 132 | 122 | 136 | 138 | 132 | 124 | 128 | 133 | 129 | – | – | – | – | – | – | – | – | – | – | – |
| NC12CC3CC(CC(C3)C1)C2 | 45.1 | 106 | 70.8 | 106 | 125 | 114 | 113 | 124 | 98.1 | 123 | 119 | 42.3 | 102 | 70.6 | 104 | 109 | 109 | 102 | 107 | 89 | 110 | 104 | 33.7 | 96.5 | 71.4 | 108 | 114 | 115 | 112 | 122 | 110 | 131 | 107 |
| CC(C)[C@H](CO)Nc1nc(Nc2ccc(C(=O)O)c(Cl)c2)c2ncn(C(C)C)c2n1 | 113 | 104 | 103 | 112 | 126 | 115 | 97.6 | 73.6 | 99.2 | 92.2 | 54.2 | 89.7 | 128 | 114 | 95.2 | 106 | 102 | 86.6 | 83.2 | 75.5 | 91.7 | 45 | 102 | 120 | 97.3 | 107 | 116 | 107 | 114 | 79.1 | 109 | 95.5 | 57.8 |
| COc1cc2ncnc(Nc3ccc(F)c(Cl)c3)c2cc1OCCCN1CCOCC1 | 118 | 113 | 123 | 103 | 123 | 112 | 107 | 102 | 86.8 | 48.5 | 10.9 | – | – | – | – | – | – | – | – | – | – | – | 105 | 119 | 125 | 102 | 125 | 118 | 123 | 108 | 78.1 | 82 | 31.9 |
| O=P(O)(O)C(O)(Cc1cccnc1)P(=O)(O)[O][Na] (stereo unspecified) | 83 | 67.3 | 100 | 21.8 | 102 | 111 | 104 | 108 | 111 | 107 | 116 | 89.6 | 51.7 | 91 | 14.2 | 95.7 | 100 | 90.3 | 96.8 | 110 | 100 | 112 | 96.1 | 52.9 | 92.7 | 22.1 | 121 | 116 | 113 | 102 | 118 | 108 | 123 |
